Test results from paper PMC5596338 (Journal of Bone and Mineral Research, 2017).

Assays:
[1] = test system: JJN3 myeloma cells in NSG mice; test: JJN3-NSG murine model of myeloma-induced bone disease; format: in vivo; conditions: for Osteoclast number (cortico-endosteal surface) / Cortical bone lesions by μCT / Osteolytic disease by μCT / Tumor burden by flow cytometric analysis of femoral bone marrow flushes / BV/TV by μCT: ZOL 28.4, OX14 23 µg P/kg s.c. 2×/week; for Osteoclast number (cortico-endosteal surface): tumor mice; for Cortical bone lesions by μCT / Osteolytic disease by μCT / BV/TV by μCT: vs tumor control; for BV/TV by μCT: tumor-bearing mice
Protocol: Female NSG mice (7 to 8 weeks old, weighing 19 to 23 g) were randomized based on weight into four groups (n = 8/group). Group 1 was a non–tumor‐bearing control group (naive). Groups 2 to 4 were injected via the tail vein with 1 × 10^6 JJN3 cells and then treated twice a week s.c. from the time of tumor cell injection for the duration of the study with vehicle control (PBS, group 2), ZOL (28.4 µg P/kg, group 3), or OX14 (23 µg P/kg, group 4). At the first signs of morbidity (after 3 weeks) all animals were anesthetized ([…] and 2% oxygen by inhalation) for cardiac bleeding and euthanized by cervical dislocation. Bone disease and tumor burden were assessed as described below (see Analysis of tumour burden).
At euthanasia, the right tibias were dissected free of soft tissue and fixed in 10% formalin before µCT analysis was used to measure the percentage of BV/TV. Tibias were scanned on a Skyscan 1272 (Bruker, Kontich, Belgium) at 4.3 μm with a 0.7‐degree rotation step, reconstructed using NRecon (v. 1.6.9.4; Bruker) and analyzed using CTAn (v. 1.12; Bruker). The number and area of cortical bone lesions (pixels^2) were assessed by taking the µCT datasets, removing the trabecular bone and then volume‐rendering the datasets to create 3D models using Drishti (version 1.0; ANUVizlab, Canberra, Australia), followed by analysis of three different sides of the bone using ImageJ software (version 1.47; NIH, Bethesda, MD, USA; https://imagej.nih.gov/ij/). After decalcification, wax embedding, and sectioning of the tibias, the numbers of osteoclasts (following tartrate‐resistant acid phosphatase [TRAP] staining) were assessed using OsteoMeasure Advanced Bone Histomorphometry Video System (Osteometrics, Inc., Decatur, GA, USA) and standard histomorphometric methods.28
Tumor burden was assessed on sections of tibias that had been stained with hematoxylin and eosin, where the distinct morphology of the myeloma cells distinguishes them from normal marrow. The proportion of bone marrow occupied by the myeloma cells was assessed using OsteoMeasure and expressed as a percentage of the whole bone section area as described.22 Tumor burden was also assessed in bone marrow flushes of the left femora by flow cytometry using an anti‐human HLA‐ABC‐APC antibody and an isotype‐matched control (R&D Systems, Minneapolis, MN, USA) as described.29, 30

[2] = test system: bone (BV/TV, osteoclasts, osteoblasts); test: In vivo OX14 dose response study in non-tumor-bearing mice (µCT and histomorphometry of tibias); set-up: species or system C57BL/6J mice
Protocol: Tibias were then assessed by μCT and histological analyzes as described below (see Assessment of bone integrity). […] Bruker) and analyzed using CTAn (v. 1.12; Bruker). The number and area of cortical bone lesions (pixels^2) were assessed by taking the μCT datasets, removing the trabecular bone and then volume-rendering the datasets to create 3D models using […] (version 1.0; ANUVizlab, Canberra, Australia), followed by analysis of three different sides of the bone using ImageJ software (version 1.47; NIH, Bethesda, MD, USA; https://imagej.nih.gov/ij/). After decalcification, wax embedding, and sectioning of the tibias, the numbers of osteoclasts (following tartrate-resistant acid phosphatase [TRAP] staining) were assessed using OsteoMeasure Advanced Bone Histomorphometry Video System (Osteometrics, Inc., Decatur, GA, USA) and standard histomorphometric methods.28

[3] = Adverse side effects observed across all in vivo studies; set-up: species or system rats and mice
Description: Sprague Dawley rats, C57BL/6J and NOD/SCID‐γ (NSG, NOD.Cg‐Prkdcscid Il2rgtm1Wjl/SzJ) mice were purchased from Charles River Laboratories (Wilmington, MA, USA/Margate, UK). All animals were housed in cages under standard conditions (12‐hour light/dark cycle). NSG mice were housed in specific‐pathogen‐free conditions. All animals were healthy and pathogen‐free at the start of each study and once each study had commenced they were monitored daily for any unexpected adverse effects. […] Similar calculations were used to determine group numbers in non–tumor‐bearing animals based on previously observed changes in bone (BMD or trabecular bone fraction [BV/TV]).

[4] = Short-term (24-hour) skeletal retention based on urinary excretion after i.v. dosing; format: in vivo, Sprague Dawley rats; conditions: for Percentage of the dose excreted in urine over 24 hours / Skeletal retention (% of administered dose): rats, i.v.; for Percentage of the dose excreted in urine over 24 hours: 0 to 24 hours, mean ± standard deviation, averaged from all studies; for Skeletal retention (% of administered dose): calculated as dose administered minus urinary excretion over 24 hours
[5] = test system: bone resorption (metaphyseal BMD); test: Growing rat model adapted from the Schenk assay: BMD of proximal tibial metaphysis by DXA; format: in vivo; conditions: growing male Sprague Dawley rats, s.c. daily for 7 days
Protocol: The antiresorptive potency of OX14 was measured by its effect on increasing BMD compared to ALN, ZOL, RIS, and MIN in a growing rat model adapted from the Schenk assay.26, 27 These studies were performed at the Procter & Gamble Health Sciences Center, Mason, OH, USA from 2007 to 2010, as part of the program of screening new bisphosphonates. Male Sprague Dawley rats (6 weeks old, weighing 120 to 150 g) were randomized into groups (n = 6) based on body weight. All groups received treatment by subcutaneous (s.c.) injection at the same time daily for 7 days. The first treatment was on day 0, and the last treatment on day 6, with animals euthanized by cervical dislocation on day 7. BMD of the proximal metaphysis of the right tibia was analyzed using dual‐energy X‐ray analysis (DXA) using a Hologic QDR‐4500 densitometer (Hologic, Inc., Waltham, MA, USA). Efficacy of each bisphosphonate was expressed as percentage change from the vehicle control group. The dose that increased BMD 20% greater than the control was determined via a logistic dose‐response relationship (SAS Institute, Inc., Cary, NC, USA), which estimates an efficacy value using animals in the study, and for comparison of bisphosphonates across studies. Data from compounds run in multiple studies was averaged.

[6] = test system: experimentally induced inflammatory colitis; set-up: method as in earlier work; conditions: cited from earlier work
[7] = Mineral binding affinity: elution from hydroxyapatite (HAP) columns by FPLC; format: physicochemical; conditions: HAP column, mean ± SE

| SMILES | Osteoclast number (cortico-endosteal surface) [1] | Cortical bone lesions by μCT [1] | Osteolytic disease by μCT [1] | Tumor burden by flow cytometric analysis of femoral bone marrow flushes ([1]; vs tumor control (JJN3)) | BV/TV by μCT [1] | Percentage of the dose excreted in urine over 24 hours [4] | Skeletal retention (% of administered dose) [4] | Dose required to increase BMD by 20% greater than control [5] | HAP affinity (mean retention time/min) [7] | also measured |
| --- | --- | --- | --- | --- | --- | --- | --- | --- | --- | --- |
| O=P(O)(O)C(F)(Cc1cnc2ccccn12)P(=O)(O)O [OX14, 1‐fluoro‐2‐(imidazo‐[1,2‐α]pyridin‐3‐yl)‐ethyl‐bisphosphonate] | significant reduction in osteoclast number | significantly reduced | prevented the osteolytic disease | no significant reduction in tumor burden | significantly higher | 52.85% ± 3.82 | 47.15 ± 3.82 % of administered dose | 0.30 μg P/kg | 6.17 ± 0.08 min | Tumor burden (overall statement) ([1]; OX14 23 µg P/kg s.c. 2×/week): not to reduce tumor burden; BV/TV by μCT ([2]; OX14 23 µg P/kg s.c. 2×/week, 3 weeks, vs vehicle): increased BV/TV; BV/TV by μCT ([2]; OX14 2.3 and 0.23 µg P/kg s.c. 2×/week, 3 weeks, vs vehicle): not significantly different from the vehicle control group; Osteoclast perimeter on the trabecular bone perimeter ([2]; OX14 2.3 and 0.23 µg P/kg, vs vehicle control): neither of the lower doses of OX14 produced significant reductions; Adverse side effects (loss or gain of weight, liver toxicity, or death) [3]: no adverse side effects; Prevention of experimentally induced inflammatory colitis [6]: effectiveness in preventing experimentally induced inflammatory colitis |
| NCCCC(O)(P(=O)(O)O)P(=O)(O)O [Alendronate, alendronate] | – | – | – | – | – | – | – | 1.52 μg P/kg | – | – |
| O=P(O)(O)C(O)(Cc1cccnc1)P(=O)(O)O [Risedronate, risedronate] | – | – | – | – | – | 34.91% ± 9.3 | 65.1 ± 9.31 % of administered dose | 0.45 μg P/kg | 9.97 ± 0.18 min | % excretion (urine, 24 h) ([4]; RIS co-dosed with MIN or OX14): 32.5 ± 0.1%; % excretion (urine, 24 h) ([4]; RIS co-dosed with equal or greater amounts of ALN or ZOL): 43.2 ± 2.6%; % excretion (urine, 24 h) ([4]; RIS dose 0.1 mg): 38.1 ± 5.6%; % excretion (urine, 24 h) ([4]; RIS dose 0.5 mg): 45.1 ± 1.0%; % excretion (urine, 24 h) ([4]; RIS dose 1 mg): 43.0 ± 1.8% |
| O=P(O)(O)C(O)(Cc1cnc2ccccn12)P(=O)(O)O [Minodronate, minodronate] | – | – | – | – | – | 44.80% ± 1.6 | 55.2 ± 1.6 % of administered dose | 0.11 μg P/kg | 10.33 ± 0.18 min | – |
| O=P(O)(O)C(O)(Cn1ccnc1)P(=O)(O)O [Zoledronate, zoledronate] | significant reduction in osteoclast number | significantly reduced | prevented the osteolytic disease | no significant reduction in tumor burden | significantly higher | 27.95% ± 3.18 | 72.05 ± 3.18 % of administered dose | 0.08 μg P/kg | 12.53 ± 0.1 min | Tumor burden by histological analysis of tibias ([1]; 28.4 µg P/kg ZOL s.c. 2×/week, vs tumor control (JJN3)): significant reduction in tumor burden; Number of osteoblasts on the trabecular bone surface ([2]; ZOL 28.4 µg P/kg s.c. 2×/week, 3 weeks, vs vehicle): significant reduction in osteoblasts |
